Results on two compounds are retold here after ChEMBL document CHEMBL5303765, “Data for DCP probe BAY-7081” (2023).

Assay [1] has as its target BMP-2-inducible protein kinase (Homo sapiens) (UniProt Q9NSY1). The experiment in a line: BMP2K SGC Tm panel (DSF). The note with it: for ΔTm: Compound concentration 10.0 uM.
For assay [2], the target named is T1, Ribosyldihydronicotinamide dehydrogenase [quinone] (Homo sapiens) (UniProt P16083).
T1 sequence (whole entry): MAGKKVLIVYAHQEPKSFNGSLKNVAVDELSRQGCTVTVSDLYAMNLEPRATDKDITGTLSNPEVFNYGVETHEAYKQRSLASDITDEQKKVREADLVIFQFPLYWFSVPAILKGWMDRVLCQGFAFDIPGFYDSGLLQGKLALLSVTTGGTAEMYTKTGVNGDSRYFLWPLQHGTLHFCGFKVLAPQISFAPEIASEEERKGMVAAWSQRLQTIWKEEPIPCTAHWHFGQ
The experiment in a line: NQO2 SGC Tm panel (DSF). As to conditions: for ΔTm: Compound concentration 10.0 uM.

Assay [3] concerns the target Mitogen-activated protein kinase 1 (Homo sapiens) (UniProt P28482). The assay is described as follows: MAPK1 SGC Tm panel (DSF). As to conditions: for ΔTm: Compound concentration 10.0 uM.
Assay [4] deals with Serine/threonine-protein kinase pim-3 (Homo sapiens) (UniProt Q86V86). The assay is described as follows: PIM3 SGC Tm panel (DSF). The note with it: for ΔTm: Compound concentration 10.0 uM.
The target of assay [5] is T2, Dual specificity mitogen-activated protein kinase kinase 6 (Homo sapiens) (UniProt P52564).
T2 sequence (whole entry): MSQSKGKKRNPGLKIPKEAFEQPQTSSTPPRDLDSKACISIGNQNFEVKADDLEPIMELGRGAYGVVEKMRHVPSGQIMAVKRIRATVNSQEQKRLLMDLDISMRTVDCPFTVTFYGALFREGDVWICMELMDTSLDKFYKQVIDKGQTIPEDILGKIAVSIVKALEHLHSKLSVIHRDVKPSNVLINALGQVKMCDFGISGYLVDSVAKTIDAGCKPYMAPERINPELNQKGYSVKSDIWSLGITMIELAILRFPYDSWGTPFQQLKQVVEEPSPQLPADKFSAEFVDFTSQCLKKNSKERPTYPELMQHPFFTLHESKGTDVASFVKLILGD
The assay is described as follows: MAP2K6 SGC Tm panel (DSF). As to conditions: for ΔTm: Compound concentration 10.0 uM.

Assay [6] deals with Ephrin type-A receptor 7 (Homo sapiens) (UniProt Q15375). The assay is described as follows: EPHA7 SGC Tm panel (DSF). The note with it: for ΔTm: Compound concentration 10.0 uM.
Chain of Ephrin type-A receptor 7 (Homo sapiens) (Q15375 28-998 limits assumed): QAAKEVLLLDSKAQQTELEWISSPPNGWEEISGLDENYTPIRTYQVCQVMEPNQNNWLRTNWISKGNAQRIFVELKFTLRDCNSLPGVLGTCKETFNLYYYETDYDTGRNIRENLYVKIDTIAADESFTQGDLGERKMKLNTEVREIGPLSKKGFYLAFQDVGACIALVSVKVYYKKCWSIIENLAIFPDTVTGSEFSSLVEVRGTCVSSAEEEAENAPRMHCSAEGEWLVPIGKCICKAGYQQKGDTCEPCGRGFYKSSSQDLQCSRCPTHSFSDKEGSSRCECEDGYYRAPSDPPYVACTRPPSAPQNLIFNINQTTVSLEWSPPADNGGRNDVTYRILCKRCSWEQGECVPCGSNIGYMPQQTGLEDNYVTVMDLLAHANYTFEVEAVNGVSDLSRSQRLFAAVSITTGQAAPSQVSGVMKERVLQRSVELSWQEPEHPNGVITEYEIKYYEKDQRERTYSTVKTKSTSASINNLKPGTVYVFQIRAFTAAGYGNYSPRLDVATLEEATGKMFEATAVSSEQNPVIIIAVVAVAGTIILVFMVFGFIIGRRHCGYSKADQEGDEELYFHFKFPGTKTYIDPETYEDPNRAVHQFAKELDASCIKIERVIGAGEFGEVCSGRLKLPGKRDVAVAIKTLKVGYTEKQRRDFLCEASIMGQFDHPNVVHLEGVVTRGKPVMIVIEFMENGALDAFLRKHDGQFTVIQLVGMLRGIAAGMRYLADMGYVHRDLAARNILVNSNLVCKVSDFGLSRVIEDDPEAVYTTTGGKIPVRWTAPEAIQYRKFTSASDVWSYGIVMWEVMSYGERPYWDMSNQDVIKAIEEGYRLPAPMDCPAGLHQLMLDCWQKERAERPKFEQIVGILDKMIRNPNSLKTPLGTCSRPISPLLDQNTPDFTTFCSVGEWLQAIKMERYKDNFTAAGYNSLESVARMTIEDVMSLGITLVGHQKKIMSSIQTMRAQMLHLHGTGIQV
Assay [7] addresses T3, Ephrin type-B receptor 3 (Homo sapiens) (UniProt P54753).
T3 sequence (whole entry): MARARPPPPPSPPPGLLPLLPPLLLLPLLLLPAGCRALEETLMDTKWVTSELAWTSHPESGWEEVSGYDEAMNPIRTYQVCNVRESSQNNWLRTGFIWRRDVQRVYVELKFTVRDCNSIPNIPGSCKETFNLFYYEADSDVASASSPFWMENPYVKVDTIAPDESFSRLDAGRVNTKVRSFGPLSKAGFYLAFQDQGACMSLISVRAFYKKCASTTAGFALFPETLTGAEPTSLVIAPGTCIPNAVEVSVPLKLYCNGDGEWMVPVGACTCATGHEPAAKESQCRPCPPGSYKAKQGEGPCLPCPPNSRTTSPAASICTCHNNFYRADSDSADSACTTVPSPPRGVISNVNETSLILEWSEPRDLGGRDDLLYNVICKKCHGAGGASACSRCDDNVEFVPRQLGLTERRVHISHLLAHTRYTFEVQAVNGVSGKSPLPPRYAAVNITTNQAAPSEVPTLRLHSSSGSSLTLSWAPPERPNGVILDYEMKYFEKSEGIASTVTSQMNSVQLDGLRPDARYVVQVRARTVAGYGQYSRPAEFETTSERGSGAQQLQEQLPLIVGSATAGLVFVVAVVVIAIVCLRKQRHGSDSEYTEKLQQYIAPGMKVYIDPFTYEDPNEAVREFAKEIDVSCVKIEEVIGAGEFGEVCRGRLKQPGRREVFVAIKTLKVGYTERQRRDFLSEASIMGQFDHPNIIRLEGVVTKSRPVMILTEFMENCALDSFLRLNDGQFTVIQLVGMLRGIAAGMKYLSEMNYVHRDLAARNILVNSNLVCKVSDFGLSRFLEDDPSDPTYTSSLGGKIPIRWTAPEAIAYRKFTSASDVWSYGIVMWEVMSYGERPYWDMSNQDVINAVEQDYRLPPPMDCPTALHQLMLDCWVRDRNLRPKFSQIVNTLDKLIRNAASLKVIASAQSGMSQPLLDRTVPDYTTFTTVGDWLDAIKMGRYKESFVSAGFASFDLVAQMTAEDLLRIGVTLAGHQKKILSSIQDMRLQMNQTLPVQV
The assay is described as follows: EPHB3 SGC Tm panel (DSF). As to conditions: for ΔTm: Compound concentration 10.0 uM.

Assay [8] deals with T4, Ferrochelatase, mitochondrial (Homo sapiens) (UniProt P22830).
T4 sequence (whole entry): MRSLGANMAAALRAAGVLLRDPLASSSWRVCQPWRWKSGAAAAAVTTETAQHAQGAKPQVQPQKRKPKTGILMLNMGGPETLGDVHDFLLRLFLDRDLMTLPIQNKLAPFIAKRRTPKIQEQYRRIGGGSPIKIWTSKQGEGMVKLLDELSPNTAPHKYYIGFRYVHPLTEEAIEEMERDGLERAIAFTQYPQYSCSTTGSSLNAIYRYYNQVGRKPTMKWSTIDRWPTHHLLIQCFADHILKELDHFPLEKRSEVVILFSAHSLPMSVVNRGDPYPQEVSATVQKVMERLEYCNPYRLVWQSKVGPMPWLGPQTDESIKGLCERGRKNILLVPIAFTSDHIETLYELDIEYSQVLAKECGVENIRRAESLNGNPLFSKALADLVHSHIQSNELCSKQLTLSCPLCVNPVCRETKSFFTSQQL
The assay is described as follows: FECHHS SGC Tm panel (DSF). As to conditions: for ΔTm: Compound concentration 10.0 uM.

The target of assay [9] is Cyclin-dependent kinase 2 (Homo sapiens) (UniProt P24941). The experiment in a line: CDK2 SGC Tm panel (DSF). The note with it: for ΔTm: Compound concentration 10.0 uM.
Assay [10] concerns the target Calcium/calmodulin-dependent protein kinase type 1D (Homo sapiens) (UniProt Q8IU85). The experiment in a line: CAMK1D SGC Tm panel (DSF). The note with it: for ΔTm: Compound concentration 10.0 uM.
Assay [11] has as its target 5-hydroxytryptamine receptor 2B (Homo sapiens) (UniProt P41595). The note with it: Compound concentration 10.0 uM.
In assay [12] the target is Histamine H4 receptor (Homo sapiens) (UniProt Q9H3N8). As to conditions: Compound concentration 10.0 uM.
Chain of Histamine H4 receptor (Homo sapiens) (Q9H3N8 whole entry): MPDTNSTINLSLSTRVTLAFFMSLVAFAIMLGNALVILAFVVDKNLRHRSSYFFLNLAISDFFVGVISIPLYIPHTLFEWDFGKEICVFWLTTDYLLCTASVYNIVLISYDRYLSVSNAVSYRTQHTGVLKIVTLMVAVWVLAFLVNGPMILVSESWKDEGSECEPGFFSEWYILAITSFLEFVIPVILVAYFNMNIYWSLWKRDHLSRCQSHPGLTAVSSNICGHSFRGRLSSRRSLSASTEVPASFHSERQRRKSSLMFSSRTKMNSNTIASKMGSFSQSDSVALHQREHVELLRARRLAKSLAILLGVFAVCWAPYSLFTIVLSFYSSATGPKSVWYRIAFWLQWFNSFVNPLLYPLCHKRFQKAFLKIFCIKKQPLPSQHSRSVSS
Assay [13] deals with 5-hydroxytryptamine receptor 1B (Homo sapiens) (UniProt P28222). As to conditions: Compound concentration 10.0 uM.
Chain of 5-hydroxytryptamine receptor 1B (Homo sapiens) (P28222 whole entry): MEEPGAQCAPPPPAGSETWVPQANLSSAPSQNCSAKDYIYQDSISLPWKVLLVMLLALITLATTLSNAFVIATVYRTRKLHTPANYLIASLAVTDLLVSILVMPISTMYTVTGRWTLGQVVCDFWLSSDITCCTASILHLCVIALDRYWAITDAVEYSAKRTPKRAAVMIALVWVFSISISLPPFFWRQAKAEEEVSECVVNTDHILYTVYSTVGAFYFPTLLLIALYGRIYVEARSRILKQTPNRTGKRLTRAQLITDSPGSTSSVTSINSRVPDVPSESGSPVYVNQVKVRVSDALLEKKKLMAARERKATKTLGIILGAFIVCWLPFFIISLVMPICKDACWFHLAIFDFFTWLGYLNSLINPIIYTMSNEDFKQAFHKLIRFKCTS

Chain of 5-hydroxytryptamine receptor 2B (Homo sapiens) (P41595 whole entry): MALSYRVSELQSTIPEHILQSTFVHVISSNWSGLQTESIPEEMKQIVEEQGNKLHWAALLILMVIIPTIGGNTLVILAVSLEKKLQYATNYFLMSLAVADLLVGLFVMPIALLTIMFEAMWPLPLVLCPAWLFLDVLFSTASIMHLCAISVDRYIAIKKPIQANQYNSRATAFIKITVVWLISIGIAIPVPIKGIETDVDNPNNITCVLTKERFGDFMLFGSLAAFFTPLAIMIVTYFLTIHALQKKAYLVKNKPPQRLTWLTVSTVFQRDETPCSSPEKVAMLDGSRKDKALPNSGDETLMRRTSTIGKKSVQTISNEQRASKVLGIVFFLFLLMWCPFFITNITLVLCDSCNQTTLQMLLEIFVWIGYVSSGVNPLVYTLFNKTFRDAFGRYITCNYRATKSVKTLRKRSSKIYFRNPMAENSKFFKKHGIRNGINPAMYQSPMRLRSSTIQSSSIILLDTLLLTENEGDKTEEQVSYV
Chain of Mitogen-activated protein kinase 1 (Homo sapiens) (P28482 whole entry): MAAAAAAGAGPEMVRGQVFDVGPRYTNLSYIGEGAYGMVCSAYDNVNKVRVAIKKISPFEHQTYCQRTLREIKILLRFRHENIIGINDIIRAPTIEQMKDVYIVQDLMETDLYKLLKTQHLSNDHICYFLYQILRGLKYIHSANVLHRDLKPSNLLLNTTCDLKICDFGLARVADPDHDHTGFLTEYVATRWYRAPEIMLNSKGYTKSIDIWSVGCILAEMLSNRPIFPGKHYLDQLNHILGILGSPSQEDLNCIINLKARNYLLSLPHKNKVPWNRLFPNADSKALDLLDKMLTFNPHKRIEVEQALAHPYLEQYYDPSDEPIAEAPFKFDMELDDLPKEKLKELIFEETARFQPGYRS
Chain of BMP-2-inducible protein kinase (Homo sapiens) (Q9NSY1 whole entry, looked up): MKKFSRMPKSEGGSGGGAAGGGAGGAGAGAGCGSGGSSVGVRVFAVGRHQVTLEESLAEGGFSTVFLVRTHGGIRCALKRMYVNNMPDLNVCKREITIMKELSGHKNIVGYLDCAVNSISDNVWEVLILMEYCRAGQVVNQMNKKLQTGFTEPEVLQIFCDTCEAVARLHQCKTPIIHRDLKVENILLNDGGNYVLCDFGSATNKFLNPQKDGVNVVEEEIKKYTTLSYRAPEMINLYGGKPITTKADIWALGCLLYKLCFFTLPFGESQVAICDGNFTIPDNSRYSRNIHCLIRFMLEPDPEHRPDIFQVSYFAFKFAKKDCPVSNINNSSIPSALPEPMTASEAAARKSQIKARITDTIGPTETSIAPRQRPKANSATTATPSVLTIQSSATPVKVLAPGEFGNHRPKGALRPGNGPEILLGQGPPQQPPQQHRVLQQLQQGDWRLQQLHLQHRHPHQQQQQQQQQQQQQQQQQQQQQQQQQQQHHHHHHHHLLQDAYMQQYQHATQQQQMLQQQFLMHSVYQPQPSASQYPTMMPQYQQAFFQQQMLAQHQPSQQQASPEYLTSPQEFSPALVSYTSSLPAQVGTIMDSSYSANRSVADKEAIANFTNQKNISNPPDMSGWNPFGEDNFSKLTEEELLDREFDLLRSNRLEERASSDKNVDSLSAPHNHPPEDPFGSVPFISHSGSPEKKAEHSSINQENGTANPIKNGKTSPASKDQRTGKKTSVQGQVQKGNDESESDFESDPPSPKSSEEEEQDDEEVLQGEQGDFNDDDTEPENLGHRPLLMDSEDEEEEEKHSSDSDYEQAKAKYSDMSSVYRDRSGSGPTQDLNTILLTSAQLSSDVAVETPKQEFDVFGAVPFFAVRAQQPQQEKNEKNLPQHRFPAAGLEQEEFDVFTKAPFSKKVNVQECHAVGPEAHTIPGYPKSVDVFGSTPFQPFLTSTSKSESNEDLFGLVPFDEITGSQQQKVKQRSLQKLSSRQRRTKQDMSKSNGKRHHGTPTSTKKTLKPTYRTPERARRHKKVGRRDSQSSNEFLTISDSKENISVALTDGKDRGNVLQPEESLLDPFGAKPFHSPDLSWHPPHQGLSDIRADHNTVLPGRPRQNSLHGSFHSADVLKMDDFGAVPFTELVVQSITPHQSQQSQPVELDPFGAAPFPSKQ
Chain of Calcium/calmodulin-dependent protein kinase type 1D (Homo sapiens) (Q8IU85 whole entry, looked up): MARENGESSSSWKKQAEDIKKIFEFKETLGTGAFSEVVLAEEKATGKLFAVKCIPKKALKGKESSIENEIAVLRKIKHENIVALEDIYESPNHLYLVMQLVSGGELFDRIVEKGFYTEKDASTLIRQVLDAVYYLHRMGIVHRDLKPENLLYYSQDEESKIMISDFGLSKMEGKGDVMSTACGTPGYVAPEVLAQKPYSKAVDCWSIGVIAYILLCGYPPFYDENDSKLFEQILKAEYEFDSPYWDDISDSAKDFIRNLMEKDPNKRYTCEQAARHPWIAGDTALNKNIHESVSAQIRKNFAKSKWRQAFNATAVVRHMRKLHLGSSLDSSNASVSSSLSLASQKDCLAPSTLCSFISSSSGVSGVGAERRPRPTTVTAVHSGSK

Regarding `CCC[C@@H]1CNCc2c1[nH]c(=O)c(C#N)c2N1CCC2(CC1)CC2`, the delta Tm Staurosporine positive control in assay [1] is 18.7; in assay [2] it was -1.11; in assay [3], 3.56; in assay [4], 16.7; in assay [5], 12.8; in assay [6], 12.1. Besides, the delta Tm Staurosporine positive control in assay [7] turned out to be 7.02; in assay [8], 2.89; in assay [9], 14.3; in [10], 10.9. The ΔTm in assay [1] was -0.192; in assay [2], -0.613; in assay [3], -0.19; in [4], -0.32; in assay [5] it was -0.119; in [6], -0.583. For the same compound, the ΔTm in assay [7] was -2.16; in assay [8] it was -1.34; in assay [9] it was -0.673; in assay [10], -0.415. Also, the inhibition in [11] was 33%; in assay [12], -8.1%; in assay [13] it was 2.21%.
`CCC[C@H]1CNCc2c1[nH]c(=O)c(C#N)c2N1CCC2(CC1)CC2`: the delta Tm Staurosporine positive control is 18.7 in [1]; -1.11 in assay [2]; 3.56 in [3]; 16.7 in assay [4]; 12.8 in [5]; 12.1 in assay [6]. In addition, the delta Tm Staurosporine positive control stood at 7.02 in [7], 2.89 in assay [8], 14.3 in [9] and 10.9 in assay [10]. Further, the ΔTm was -0.103 in [1]; -0.626 in [2]; -0.182 in assay [3]; -0.159 in assay [4]; -0.0944 in assay [5]; -0.592 in [6]. The ΔTm is -2.51 in [7], -1.08 in assay [8], -0.589 in assay [9] and -0.751 in assay [10]. The inhibition is 44.9% in assay [11], 14.2% in assay [12] and -6.99% in assay [13].
